Measured values as given in PMC11456916, “A screen for cell envelope stress uncovers an inhibitor of prolipoprotein diacylglyceryl transferase, Lgt, in Escherichiacoli” (iScience, 2024).
pIC50: −log10 of the molar value. Values after ≈ are worked out from the molar mass of the structure shown. Where two headings read alike, the source gives them in different places.

Assays:
[1] = tested on: E. coli ΔtolC-pore harboring CRISPRi plasmids targeting lgt; experiment: CRISPRi lgt knockdown MIC (low-copy enhancement); type: cell-based; details: two gRNAs targeting lgt, 100 ng/mL aTc
Description: We next turned to genetic approaches to confirm the mechanism of action of MAC-0452936. […] To that end, we screened the E. coli CRISPRi collection in the ΔtolC-pore genetic background with a sub-inhibitory concentration of MAC-0452936 and measured the fitness of all 356 CRISPRi mutants (Figure 4C and Data S4). […] Depletion of Lgt by CRISPRi provided supporting evidence that MAC-0452936 targeted Lgt in E. coli; however, we sought to confirm this observation using a parallel genetic approach. We hypothesized that MAC-0452936 potency would also be affected by high-copy expression of lgt. To that end, we introduced either an arabinose inducible copy of lgt supplied on the pCHAP9231 plasmid[48] or the pBAD19s plasmid as a control into E. coli ΔtolC-pore and tested the potency of MAC-0452936 (Figure 4E). Induction of lgt expression with arabinose suppressed the activity of MAC-0452936 by about 8-fold. […] To test this hypothesis, we constructed E. coli ΔlgtΔtolC-pore with pCHAP9231[48] so that lgt expression was driven solely by arabinose from the plasmid. […] To test this observation with MAC-0452936, we introduced an lpp deletion into our screening strain E. coli ΔtolC-pore and assessed the activity of our Lgt inhibitor in this mutant background. […]

E. coli ΔtolC-pore = experiment: MIC assay, E. coli ΔtolC-pore; type: cell-based; details: LB, 18 h
Method: (§1) For MIC assays, cultures of bacteria were grown in LB broth. Overnight cultures were diluted (1:100) into fresh LB media and grown to the mid-log phase of growth (OD600 ∼0.5). Subcultures were then normalized to an OD600 of 0.1, and diluted (1:5000) into assay media. Assay plates were then incubated for 18 h at 37°C, then OD600 was measured using a Biotek Neo plate reader.

[2] = target: T1, prolipoprotein diacylglyceryl transferase, Lgt (Escherichia coli, UniProt P60955); experiment: In vitro Lgt biochemical assay (phosphatidylglycerol and Pal-IAAC peptide substrates); parameters: species or system E. coli
T1 construct: Expression, purification, and in vitro Lgt biochemical assay were conducted as described by Diao et al; made in house
T1 sequence (P60955 whole entry): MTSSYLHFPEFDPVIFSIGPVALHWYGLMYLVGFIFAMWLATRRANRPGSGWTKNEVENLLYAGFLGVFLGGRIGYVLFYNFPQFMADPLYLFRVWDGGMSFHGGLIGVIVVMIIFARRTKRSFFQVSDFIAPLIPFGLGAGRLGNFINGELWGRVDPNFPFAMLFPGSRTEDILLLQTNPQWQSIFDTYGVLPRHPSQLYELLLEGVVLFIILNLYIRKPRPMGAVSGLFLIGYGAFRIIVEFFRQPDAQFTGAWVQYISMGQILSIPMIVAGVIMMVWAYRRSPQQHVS
Description: With both genetic and phenotypic evidence supporting MAC-0452936 inhibiting Lgt in E. coli, we next investigated whether MAC-0452936 could inhibit Lgt activity in vitro. Recently, a biochemical assay for Lgt activity was developed using phosphatidylglycerol and Pal-IAAC peptide as substrates.[12] […] As similar results were obtained using two different Lgt enzyme preparations, the inhibition observed by MAC-0452936 was not dependent on the preparation of the lipid matrix. Together, we present genetic, phenotypic, and biochemical evidence that MAC-0452936 inhibits the growth of E. coli through inhibition of Lgt. MAC-0452936 represents a previously undiscovered small molecule inhibitor of bacterial Lgt, and the oxime ester represents a promising chemical scaffold for antibiotic discovery.
Expression, purification, and in vitro Lgt biochemical assay were conducted as described by Diao et al.[12]

E. coli BW25113 = experiment: MIC assay, wild-type E. coli with or without SPR741; type: cell-based; details: for reduction in potency relative to MAC-0452936 (1): MIC against E. coli with SPR741
Method: We next sought to determine whether we could achieve growth inhibition of wild-type E. coli using MAC-0452936 and an antibiotic adjuvant. […] To that end, we determined the MIC of MAC-0452936 against wild-type E. coli in the presence and absence of a sub-MIC concentration of SPR741 (Figure S8B). […] We leveraged this combination to characterize the spectrum of activity of MAC-0452936 against a panel of Gram-negative pathogens (Table 2). In the presence of 8 μg/mL SPR741, we observed MAC-0452936 activity against the clinical E. coli isolates C0244 and CFT073 at 2 μg/mL as well as against Salmonella Typhimurium SL1344 at 4 μg/mL.
as §1

[3] = Lgt purified using DDM lipid matrix, read-out: in vitro Lgt inhibition DDM-Lgt IC50
[4] = Lgt purified using amphipol lipid matrix, read-out: in vitro Lgt inhibition Amph-Lgt IC50

SMILES	sensitization upon depletion of Lgt with CRISPRi constructs [1]	MIC, E. coli ΔtolC-pore (E. coli ΔtolC-pore) [µg/mL]	pIC50 [2, 3]	pIC50 [2, 4]	MIC, E. coli BW25113 (WT) + 8 μg/mL SPR741 (E. coli BW25113) [µg/mL]	reduction in potency relative to MAC-0452936 (1) (E. coli BW25113) [fold]	activity against E. coli with SPR741 (E. coli BW25113; in words)
CO[C@H]1/C=C/O[C@@]2(C)Oc3c(C)c(O)c4c(O)c(c(/C=N/N5CCN(C)CC5)c(O)c4c3C2=O)NC(=O)/C(C)=C\C=C\[C@H](C)[C@H](O)[C@@H](C)[C@@H](O)[C@@H](C)[C@H](OC(C)=O)[C@@H]1C [Rifampicin]	not to either of the negative control antibiotics	–	–	–	–	–	–
COc1ccc(C(=O)O/N=C(\c2cccs2)C(C)(C)C)c(F)c1 [compound 2, (Z)-2-Pivaloylthiophene O-(2-fluoro-4-methoxybenzoyl) oxime]	–	0.5 (≈ 1.49 µM)	6.11	6.49	–	–	–
CC(C)(C)/C(=N/OC(=O)c1cccnc1)c1cccs1 [compound 3, (Z)-2-Pivaloylthiophene O-(pyridine-3-oyl) oxime]	–	1 (≈ 3.47 µM)	5.45	5.57	–	–	–
CC(C)(C)/C(=N/OC(=O)c1cncs1)c1cccs1 [compound 4, (Z)-2-Pivaloylthiophene O-(thiazol-5-ylcarbonyl) oxime]	–	2 (≈ 6.79 µM)	5.11	5.31	2	–	–
Cn1cncc1C(=O)O/N=C(\c1cccs1)C(C)(C)C [compound 5, (Z)-2-Pivaloylthiophene O-(1-methyl-1H-imidazol-5-oyl) oxime]	–	4 (≈ 13.7 µM)	5.11	5.23	4	–	–
COc1ccc(C(=O)O/N=C(\c2cccs2)C(C)(C)C)cc1N [compound 6, (Z)-2-Pivaloylthiophene O-(3-amino-4-methoxybenzoyl) oxime]	–	32 (≈ 96.3 µM)	4.24	4.02	8	–	–
COc1cc(OC)cc(C(=O)O/N=C(\c2cccs2)C(C)(C)C)c1 [compound 7, (Z)-2-Pivaloylthiophene O-(3,5-dimethoxybenzoyl) oxime]	–	> 32	4.23	3.76	4	–	–
COc1ccc(CC(=O)O/N=C(\c2cccs2)C(C)(C)C)cc1 [compound 16, (Z)-2-Pivaloylthiophene O-(2-(4-methoxyphenyl)acetyl) oxime]	–	–	–	–	4	8	–
CC(C)(C)C(=NOS(N)(=O)=O)c1cccs1 [compound 17, 2-Pivaloylthiophene O-(sulfamoyl) oxime]	–	–	–	–	–	–	inactive
COc1ccc(C(=O)O/N=C(\c2cncs2)C(C)(C)C)cc1 [compound 20, (Z)-5-Pivaloylthiazole O-(4-methoxybenzoyl) oxime]	–	–	–	–	–	≥ 32	–
COc1ccc(C(=O)O/N=C(\c2cccnc2)C(C)(C)C)cc1 [compound 22, (Z)-3-Pivaloylpyridine O-(4-methoxybenzoyl) oxime]	–	–	–	–	–	≥ 32	–
